Source: patent US9670190B2, “Pyridinyl and pyrimidinyl sulfonamide derivatives as chemokine receptor modulators” (Allergan, Inc., priority 2013, dated 2017)

Biological target: T1, CCR2 (Homo sapiens, UniProt P41597)
T1 construct: expressed in transfected cells
Assay: CCR2 calcium activity assay (FLIPR Tetra) in HEK-Gqi5 cells stably expressing CCR2
Format: cell-based
Conditions: calcium activity on FLIPR Tetra, chemokine positive control agonist; for IC50: read-out: IC50 (nM), activity at CCR2 receptor
Method: HEK-Gqi5 cells stably expressing CCR2 were cultured in DMEM high glucose, 10% FBS, 1% PSA, 400 μg/ml geneticin and 50 μg/ml hygromycin. Appropriate positive control chemokines (MCP-1, MIP1A or RANTES) was used as the positive control agonist for screening compound-induced calcium activity assayed on the FLIPR^Tetra. The drug plates were prepared in 384-well microplates using the EP3 and the MultiPROBE robotic liquid handling systems. Compounds were synthesized and tested for CCR2 activity.

T1 sequence (P41597 whole entry, species assumed): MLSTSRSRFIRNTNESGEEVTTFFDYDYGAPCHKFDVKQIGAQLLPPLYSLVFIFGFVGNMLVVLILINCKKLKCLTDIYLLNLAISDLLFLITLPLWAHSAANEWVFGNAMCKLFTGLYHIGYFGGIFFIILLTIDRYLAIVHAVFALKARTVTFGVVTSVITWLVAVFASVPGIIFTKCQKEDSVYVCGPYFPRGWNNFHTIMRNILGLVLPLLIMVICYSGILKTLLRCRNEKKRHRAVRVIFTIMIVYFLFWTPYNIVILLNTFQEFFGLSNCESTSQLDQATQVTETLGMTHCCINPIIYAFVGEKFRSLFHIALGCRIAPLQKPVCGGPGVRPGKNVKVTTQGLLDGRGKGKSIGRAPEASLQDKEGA

Compound | % ANTAGONISM | IC50
O=S(=O)(Cc1ccccc1)c1ncc(Cl)cc1NS(=O)(=O)c1ccc(Cl)s1 [Compound 11, N-[2-(benzylsulfonyl)-5-chloropyridin-3-yl]-5-chlorothiophene-2-sulfonamide] | 89% | 263 nM
O=S(=O)(Nc1cc(Cl)cnc1[S+]([O-])Cc1ccccc1)c1ccc(Cl)s1 (centres unmarked) [Compound 12, N-[2-(benzylsulfinyl)-5-chloropyridin-3-yl]-5-chlorothiophene-2-sulfonamide] | 77% | 
O=S(=O)(Nc1cncnc1[S+]([O-])Cc1ccccc1)c1cc2ccccc2o1 (centres unmarked) [Compound 3, N-[4-(benzylsulfinyl)pyrimidin-5-yl]-1-benzofuran-2-sulfonamide] | 95% | 588 nM
O=S(=O)(Cc1ccccc1)c1cnccc1NS(=O)(=O)c1cc2ccccc2o1 [Compound 6, N-[3-(benzylsulfonyl)pyridin-4-yl]-1-benzofuran-2-sulfonamide] | 95% | 17 nM
O=S(=O)(Nc1cc[n+]([O-])cc1SCc1ccccc1)c1cc2ccccc2o1 [Compound 5, N-[3-(benzylsulfanyl)-1-oxidopyridin-4-yl]-1-benzofuran-2-sulfonamide] | 94% | 8 nM
O=S(=O)(Nc1cc(Cl)cnc1[S+]([O-])Cc1ccccc1)c1ccc(Cl)c(Cl)c1 (centres unmarked) [Compound 10, N-[2-(benzylsulfinyl)-5-chloropyridin-3-yl]-3,4-dichlorobenzenesulfonamide] | 87% | 119 nM
O=S(=O)(Cc1ccccc1)c1ncncc1NS(=O)(=O)c1cc2ccccc2o1 [Compound 2, N-[4-(benzylsulfonyl)pyrimidin-5-yl]-1-benzofuran-2-sulfonamide] | 101% | 135 nM
O=S(=O)(Nc1ccncc1SCc1ccccc1)c1cc2ccccc2o1 [Compound 4, N-[3-(benzylsulfanyl)pyridin-4-yl]-1-benzofuran-2-sulfonamide] | 100% | 485 nM
O=S(=O)(Nc1cncnc1SCc1ccccc1)c1cc2ccccc2o1 [Compound 1, N-[4-(benzylsulfanyl)pyrimidin-5-yl]-1-benzofuran-2-sulfonamide] | 44% | 
O=S(=O)(Cc1ccccc1)c1ncc(Cl)cc1NS(=O)(=O)c1ccc(Cl)c(Cl)c1 [Compound 9, N-[2-(benzylsulfonyl)-5-chloropyridin-3-yl]-3,4-dichlorobenzenesulfonamide] | 97% | 37 nM
O=S(=O)(Nc1cc(Cl)cnc1SCc1ccccc1)c1ccc(Cl)c(Cl)c1 [Compound 7, N-[2-(benzylsulfanyl)-5-chloropyridin-3-yl]-3,4-dichlorobenzenesulfonamide] | 46% | 
O=S(=O)(Nc1cc(Cl)cnc1SCc1ccccc1)c1ccc(Cl)s1 [Compound 8, N-[2-(benzylsulfanyl)-5-chloropyridin-3-yl]-5-chlorothiophene-2-sulfonamide] | 60% | 
